Data reported in publication PMC9104508, “Antioxidant, Hypoglycemic and Molecular Docking Studies of Methanolic Extract, Fractions and Isolated Compounds from Aerial Parts of Cymbopogon citratus (DC.) Stapf” (Molecules, 2022).
Where two headings read alike, the source gives them in different places. Marks after values point to notes of the source that are not given here.

What was measured:
α-glucosidase = α-glucosidase (Saccharomyces cerevisiae, UniProt P53341); assay: α-Glucosidase inhibition assay (pNPG substrate); format: biochemical; conditions: for inhibition at 20 µM: read-out: α-Glucosidase Inhibitory Rate
Description: The α-glucosidase inhibitory activity was measured according to the procedure described in the paper, with slight modifications. […] Immediately, 40 μL PNPG (2.5 mM) was added to each well and reacted at 37 °C for 30 min. […] The total volume of the reaction system was 200 μL. The α-glucosidase inhibition activity was calculated according to the following formula:Inhibition (%) = [1 − (A1 − A2)/(A3 − A4)] × 100(2) A1 = the absorbance of the sample group with α-glucosidase, A2 = the absorbance of the sample control group without α-glucosidase, A3 = the absorbance of the control group without samples, and A4 = the absorbance of the blank control without samples and α-glucosidase.
Results were expressed as IC50 values calculated according to Prism7.0 software.

[1] = ABTS free radical scavenging assay (commercial kit, Trolox standard); conditions: compounds
Description: (§1) The antioxidant activities of the crude extracts and isolated compounds were evaluated by implementing 2,2-diphenyl-1-picrylhydrazyl free radical scavenging (DPPH^+), 2,2’-azino-bis (3-ethylbenzothiazoline-6-sulphonic free radical scavenging (ABTS^+), and the ferric reducing antioxidant power (FRAP) assay.
(§2) ABTS^+ and FRAP assays were measured by commercial assay kits (Suzhou Comin Biotechnology Co., Ltd., Suzhou, China). The experimental method was determined according to the method used in the literature. The crude extracts and chemical compounds were dissolved in anhydrous ethanol at concentrations of 800 μg/mL and 40 μM. […] Trolox was used as a standard reference compound to quantitate ABTS^+ and FRAP capacity. The results were expressed in µmol Trolox/g or mol Trolox/mol. The standard curve was drawn using Trolox solutions at a range of concentrations.

[2] = Ferric reducing antioxidant power (FRAP) assay (commercial kit, Trolox standard); conditions: compounds
Description: as §1, §2

[3] = DPPH free radical scavenging assay; conditions: compounds; 30 min, room temperature
Description: as §1
The DPPH^+ assay was measured according to the previous report with slight modifications. […] The DPPH^+ was dissolved with anhydrous methanol to 0.1 mM.
Then 180 μL DPPH solution and 20 μL sample were mixed in each well of a 96-well plate and incubated for 30 min at room temperature in the dark. […] Ascorbic acid was used as a positive control. The DPPH^+ scavenging activity was calculated according to the following formula:Inhibition (%) = [1 − (A1 − A2)/(A3 − A4)] × 100(1) A1 = absorbance of the sample group with DPPH, A2 = absorbance of the sample control group without DPPH, A3 = absorbance of the control group with DPPH, and A4 = the absorbance of the blank control.

3T3-L1 adipocytes = assay: Glucose uptake in 3T3-L1 adipocytes; format: cell-based, mouse
Description: The 3T3-L1 preadipocytes were cultured and differentiated using the method described earlier with slight modifications. The 3T3-L1 preadipocytes were cultured in high glucose DMEM supplemented with 10% NBCS, 1% P/S, and then starved until the cells reached confluence (day 0). Two days later (day 2), the cells were induced for differentiation with high glucose DMEM supplemented with 10% FBS, 1% P/S, IBMX, DEX, Rosi, and insulin. On day 5, the medium was changed to high glucose DMEM containing 10% FBS, 1% P/S, and 100 nM insulin for one day (day 6). Then the cells were completely differentiated into mature adipocytes.
The glucose uptake test was carried out according to the procedure described in the paper. […] After 48 h of culture, the glucose uptake was measured according to the operating instructions of the glucose content determination kit. Following the glucose uptake test, the cell viability was determined using the CellTiter 96® aqueous cell proliferation test. […] Then the absorbance was measured using microplate reader at 490 nm after incubation at 37 °C for 4 h. The cell viability was calculated according to the following formula:Cell viability rate (%) = […] × 100 (3) A1 = the absorbance of the blank control, A2 = the absorbance of each fraction group, each compound group, or positive control group.

Sequence of α-glucosidase (P53341 whole entry): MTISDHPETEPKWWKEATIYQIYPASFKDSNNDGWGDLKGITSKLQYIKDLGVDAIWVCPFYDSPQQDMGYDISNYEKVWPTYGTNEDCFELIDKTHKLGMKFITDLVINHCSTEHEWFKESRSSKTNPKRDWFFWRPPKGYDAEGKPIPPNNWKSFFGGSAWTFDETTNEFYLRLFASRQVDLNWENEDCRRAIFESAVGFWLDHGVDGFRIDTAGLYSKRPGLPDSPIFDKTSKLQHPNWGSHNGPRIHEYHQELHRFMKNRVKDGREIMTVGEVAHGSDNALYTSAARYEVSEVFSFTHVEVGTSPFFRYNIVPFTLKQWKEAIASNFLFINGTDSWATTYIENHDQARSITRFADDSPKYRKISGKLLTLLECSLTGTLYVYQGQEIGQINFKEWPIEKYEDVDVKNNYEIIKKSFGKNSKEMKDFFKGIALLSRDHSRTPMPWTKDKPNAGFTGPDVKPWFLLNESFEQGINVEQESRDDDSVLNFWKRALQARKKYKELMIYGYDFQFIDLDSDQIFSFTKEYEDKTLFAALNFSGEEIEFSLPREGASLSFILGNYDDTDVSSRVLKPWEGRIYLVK

IC50 [3] [µM]	inhibition at 20 µM (α-glucosidase; at a concentration of 20 μM) [%]	Compound	α-Glucosidase Inhibitory Rate (α-glucosidase; at a concentration of 20 μM) [%]	ABTS Assay, Trolox equivalents [1]	FRAP Assay, Trolox equivalents [2]	inhibition at 20 µM (α-glucosidase) [%]	glucose uptake in 3T3-L1 adipocytes (3T3-L1 adipocytes; compounds at 20 μM, 48 h, versus control)	glucose uptake rates of 3T3-L1 adipocytes (3T3-L1 adipocytes; positive control group versus control group, p < 0.001)
–	–	C[C@H]1O[C@H](O[C@H]2[C@H](O)[C@@H](O)[C@@H](O[C@H]3[C@H](O)[C@@H](O)C(O)O[C@@H]3CO)O[C@@H]2CO)[C@H](O)[C@@H](O)[C@@H]1N[C@H]1C=C(CO)[C@@H](O)[C@H](O)[C@H]1O (some centres unmarked) [Acarbose, reference compound]	99.4 ± 0.0	–	–	–	–	–
19.8 ± 1.27	–	O=C1O[C@H]([C@@H](O)CO)C(O)=C1O [Ascorbic acid, reference compound]	–	1.66 ± 0.050 ^e mol Trolox/mol	1.68 ± 0.063 ^b mol Trolox/mol	–	–	–
> 80	< 50	COc1cc(O)cc(O)c1C(C)=O [Compound 1, 4,6-dihydroxy-2-methoxyacetophenone]	–	2.40 ± 0.16 ^a mol Trolox/mol	–	–	–	–
> 80	22.6 ± 3.4	COc1cc(OC2OC(CO)C(O)C(O)C2O)cc(O)c1C(C)=O [Compound 2, 4-O-β-D-glucopyranosyl-2-hydroxy-6-methoxyacetophenone]	–	0.87 ± 0.11 ^f mol Trolox/mol	–	–	–	–
> 80	< 50	CC(=O)c1c(O)cc(O)cc1OC1OC(CO)C(O)C(O)C1O [Compound 3, 2,4,6-trihydroxy-acetophenone 2-O-β-D-glucoside]	–	1.97 ± 0.079 ^cd mol Trolox/mol	–	–	–	–
7.41 ± 0.74	< 50	O=C(O)/C=C/c1ccc(O)c(O)c1 [Compound 5, caffeic acid]	–	2.15 ± 0.0619 ^abc mol Trolox/mol	1.73 ± 0.080 ^b mol Trolox/mol	–	weak effect	–
> 80	5.3 ± 1.8	COc1cc(/C=C/C(=O)OCC(O)CO)ccc1O (centres unmarked) [Compound 6, 1-O-feruloylglycerol]	–	1.80 ± 0.0462 ^de mol Trolox/mol	0.012 ± 0.014 ^d mol Trolox/mol	–	–	–
> 80	46.1 ± 2.4	O=C(/C=C/c1ccc(O)cc1)OCC(O)COC(=O)/C=C/c1ccc(O)cc1 [Compound 7, 1,3-O-di-p-coumaroylglycerol]	–	1.99 ± 0.11 ^cd mol Trolox/mol	–	–	–	–
14.8 ± 1.83	67	O=C(/C=C/c1ccc(O)cc1)OCC(O)COC(=O)/C=C/c1ccc(O)c(O)c1 (centres unmarked) [Compound 8, 1-O-p-coumaroyl-3-O-caffeoylglycerol]	–	1.70 ± 0.066 ^e mol Trolox/mol	1.42 ± 0.073 ^c mol Trolox/mol	–	–	–
8.82 ± 1.12	88.8	O=C(/C=C/c1ccc(O)c(O)c1)OCC(O)COC(=O)/C=C/c1ccc(O)c(O)c1 [Compound 9, 1,3-O-dicaffeoylglycerol]	–	2.065 ± 0.050 ^bcd mol Trolox/mol	2.42 ± 0.10 ^a mol Trolox/mol	–	–	–
–	–	insulin	–	–	–	–	–	noticeably promoted

Compound	IC50 [3] [µM]	inhibition at 20 µM (α-glucosidase; at a concentration of 20 μM) [%]	α-Glucosidase Inhibitory Rate (α-glucosidase; at a concentration of 20 μM) [%]	ABTS Assay, Trolox equivalents [1]	FRAP Assay, Trolox equivalents [2]	inhibition at 20 µM (α-glucosidase) [%]	glucose uptake in 3T3-L1 adipocytes (3T3-L1 adipocytes; compounds at 20 μM, 48 h, versus control)	glucose uptake rates of 3T3-L1 adipocytes (3T3-L1 adipocytes; positive control group versus control group, p < 0.001)
O=C(O)/C=C/c1ccc(O)cc1 [Compound 4, p-coumaric acid]	> 80	–	–	2.28± 0.10 ^ab mol Trolox/mol	–	< 50	–	–
COc1cc(-c2cc(=O)c3c(O)cc(O)cc3o2)cc(OC)c1O [Compound 10, tricin]	> 80	–	–	1.64 ± 0.14 ^e mol Trolox/mol	–	20.8 ± 7.3	–	–
O=c1cc(-c2ccc(O)c(O)c2)oc2cc(O[C@@H]3O[C@H](CO)[C@@H](O)[C@H](O)[C@H]3O)cc(O)c12 [Compound 12, luteolin-7-O-β-D-glucopyranoside]	7.28 ± 1.48	–	–	1.86 ± 0.075 ^de mol Trolox/mol	1.31 ± 0.057 ^c mol Trolox/mol	21.9 ± 6	–	–
